From patent US20140045856A1, “4-Methyl-2,3,5,9,9b-pentaaza-cyclopenta[a]naphthalenes” (BOEHRINGER INGELHEIM INTERNATIONAL GMBH, priority 2012, published 2014)
Like-named read-outs stand apart in the source and are kept apart here.

Experiments:
PDE 10A = PDE 10A (Homo sapiens, UniProt Q9Y233); experiment: Radioactive PDE10 assay ([3H]cAMP SPA); assay type: biochemical
Experimental: (§1) The activity of the positive control (minus the negative control=background) is set to 100% and activity in the presence of compound is expressed relative to these 100%.
(§2) IC50 are calculated with GraphPadPrism or other suited software setting the positive control as 100 and the negative control as 0. For calculation of IC50 usually 11 dilutions of the test compound are selected.
protein concentration: 75 pg/μl
In detail the protocol is as follows:
(§3) Into a 384 well plate (OptiPlate, white), the following components are pipetted (either manually or using automated pipetting devices):
(§4) 20 μl test-compound solution (test compound diluted in assay buffer at twofold the desired concentration)
+10 μl PDE 10A preparation (enzyme diluted in assay buffer to a concentration of 0.3 ng/μl protein)
+10 μl cAMP tracer (diluted in assay buffer to a concentration of 80 nM cAMP, specific activity ˜4 mCi/l)
After addition of all 3 components the plates are shortly spun and incubated at room temperature for 60 min. The reaction is stopped by the addition of 20 μl Yttrium SPA PDE Beads containing 18 mM zinc sulphate in water
PDE 10A protein is expressed upon baculovirus infection in SF9 cells. The cells have been incubated upon infection for ˜3 days and protein production was confirmed by Western Blot. The cells were collected by centrifugation and the pellet frozen in liquid nitrogen before it was resuspended in PBS containing 1% Triton X-100 and protease inhibitors.

PDE2A [1] = target: T1, PDE2A (Homo sapiens, UniProt O00408); experiment: Radioactive PDE2 assay ([3H]cAMP SPA); assay type: biochemical
Experimental: a) Radioactive PDE2 Assay Protocol:
PDE 2A protein is expressed upon baculovirus infection in SF9 cells. The cells have been incubated upon infection for ˜3 days and protein production was confirmed by Western Blot. The cells were collected by centrifugation and the pellet frozen in liquid nitrogen before it was resuspended in PBS containing 1% Triton X-100 and protease inhibitors.
as §3, §4
+10 μl PDE 2A preparation (enzyme diluted in assay buffer to a concentration of 0.5 ng/μl protein)
+10 μl [^3H]cAMP (diluted in assay buffer to a concentration of 80 nM cAMP)
positive control: no inhibitor, DMSO at the concentration as used in the compound dilutions
negative control: no PDE 2 (SF9 lysate instead of SF9/PDE 2A lysate)
Calculation of % Inhibition:
as §1, §2

PDE2A [2] = target: T1, PDE2A; experiment: PDE 2A assay with fluorescent substrate (IMAP, fluorescence polarization); assay type: biochemical; details: read-out: PDE2 IC50
Source text: (§5) c) Phosphodiesterase (PDE) 2A and 10 Assay with Fluorescent Substrate
(§6) The PDE reaction cleaves cAMP to AMP. The IMAP system (Molecular Device) using fluorescence polarization (FP) as detection principle was used to measure enzyme activity. A fluorescent labeled cAMP was used as substrate for the reaction, generating a labeled AMP. The fluorescent AMP binds specifically to the large M(III)-based nano-particles which reduces the rotational speed of the substrate and thus increases its polarization.
(§7) The inhibition of PDE 2A or 10 enzyme activity was assessed using IMAP-Phosphodiesterase-cAMP fluorescence labeled substrate (Molecular Devices, Order No. R7506), IMAP TR-FRET screening express (Molecular Devices, Order No. R8160, the TR-FRET component will not be used) and PDE 2A or PDE10 protein expressed upon baculovirus infection in SF9 cells. The cells were incubated after infection for ˜3 days and protein production was confirmed by Western Blot. The cells were collected by centrifugation and the pellet frozen in liquid nitrogen before it was resuspended in PBS containing 1% Triton X-100 and protease inhibitors.
(§8) All reactions were performed in 384 well plates, Perkin Elmer black optiplates and IMAP reaction buffer with 0.1% Tween20 (kit component)
(§9) Compounds were serial diluted in DMSO. With an intermediate dilution step with reaction buffer DMSO concentration was reduced to achieve 1% DMSO in the assay reaction. Setup of the assay started with 10 μl enzyme (˜10 ng/well, depending on prep. batch), 5 μl compound, reaction was started by addition of 5 μl labeled cAMP (30 nM, final concentration), immediately mixed for 15 seconds on a Eppendorf mixmate (2000 rpm) followed by an incubation at room temperature for 90 minutes in the dark. Reaction is stopped by adding of 60 μl binding buffer for FP/cAMP (kit component).
(§10) Each assay plate contained wells with vehicle controls (1% DMSO) for the measurement of non-inhibited reaction (=100% control) and wells without enzyme as 0% controls.

[3] = Animal experiments and sample analysis: plasma, brain and CSF concentration; assay type: in vivo; details: rat; for concentration at 0.5 h: 0.5 h between administration and CSF sampling; for concentration at 0.5 h / concentration at 2 h: doses of 10.0 or 5 μmol/kg; for concentration at 2 h / Kp at 2 h: 2 h between administration and CSF sampling
Experimental: Test compounds were administered to animals (rat) different routes at doses of 10.0 or 5 μmol/kg, (both oral and intravenous). After compound administration, the animals were sacrificed in a CO2 chamber and CSF samples were carefully collected by puncture of the cisterna magna. Immediately after CSF sampling, blood was taken by heart puncture and brains were dissected out. Blood was collected in EDTA-coated microvettes and plasma was prepared by centrifugation. Concentration of the test compounds in plasma, CSF or brain homogenate was determined using HPLC-MS-MS.

[4] = Metabolic stability in pooled liver microsomes; assay type: in vitro ADME; details: human liver microsomes, 37° C., 1 mg/mL microsomal protein, test compound 1 μM, NADPH
Experimental: The metabolic stability of the compounds according to the invention has been investigated as follows:
The metabolic degradation of the test compound was assayed at 37° C. with pooled liver microsomes from various species. The final incubation volume of 100 μl per time point contains TRIS buffer pH 7.6 at room temperature (0.1 M), magnesium chloride (5 mM), microsomal protein (1 mg/mL for human and dog, 0.5 mg/mL for other species) and the test compound at a final concentration of 1 μM. Following a short preincubation period at 37° C., the reactions were initiated by addition of betanicotinamide adenine dinucleotide phosphate, reduced form (NADPH, 1 mM), and terminated by transferring an aliquot into solvent after different time points. […] The half-life was determined by the slope of the semi-logarithmic plot of the concentration-time profile.

hERG channel = hERG channel (Homo sapiens, UniProt Q12809); experiment: hERG channel assay (whole-cell patch clamp, HEK293 cells transfected with hERG cDNA); assay type: cell-based; details: 35° C.
Source text: hERG (Human Ether-à-Go-Go-Related Gene)-Channel Assay
hERG channel inhibition of compounds of the present invention has been investigated as follows:
HEK (human embryonic kidney) 293 cells were stably transfected with hERG cDNA. Cells were superfused with a bath solution containing (mM): NaCl (137), KCl (4.0), MgCl2 (1.0), CaCl2 (1.8), Glucose (10), HEPES (10), pH 7.4 with NaOH. Patch pipettes were made from borosilicate glass tubing using a horizontal puller and filled with pipette solution containing (mM): K-aspartate (130), MgCl2 (5.0), EGTA (5.0), K2ATP (4.0), HEPES (10.0), pH 7.2 with KOH. Resistance of the microelectrodes was in the range between 2 and 5 MΩ.
Stimulation and Recording:
Membrane currents were recorded using an EPC-10 patch clamp amplifier and PatchMaster software. hERG-mediated membrane currents were recorded at 35° C., using the whole-cell configuration of the patch-clamp technique. Transfected HEK293 cells were clamped at a holding potential of −60 mV and hERG-mediated inactivating tail currents were elicited using a pulse pattern with fixed amplitudes (activation/inactivation: 40 mV for 2000 ms; recovery: […]; ramp to 40 mV in 2 ms; inactivating tail current: 40 mV for 50 ms) repeated at 15 s intervals. During each inter-pulse interval 4 pulses scaled down by a factor of 0.2 were recorded for a P/n leak subtraction procedure. […] compensation was employed up to a level that safely allowed recording devoid of ringing.
Compound Preparation and Application:
The different concentrations of the test compound were applied sequentially on each of the different cells investigated. A steady state level of baseline current was measured for at least 6 sweeps prior to the application of the first test compound concentration.
The test compound was dissolved in DMSO to yield a master stock solution which was diluted further in DMSO to stock solutions needed for the lower concentrations. Final dilutions in extracellular buffer were prepared freshly from these stocks by a 1:1000 dilution step each before starting the experiments.
Data analysis and IC50 determination:
Peak current amplitudes were measured 3 ms after the ramp to +40 mV. For baseline and each concentration the peak currents of the three last sweeps before application of the next concentration were averaged. Residual currents ( 1/10) were calculated for each cell as the fraction of actual average peak current and average baseline peak current.
The logistic concentration-response curve of the following form was fitted to the residual current data using a genetic algorithm:
C: actual concentration of compound (in μM) IC50: half-inhibitory concentration (in μM) p: Hill slope

PDE10 = PDE10 (Homo sapiens, UniProt Q9Y233); experiment: PDE10 assay with fluorescent substrate (IMAP, fluorescence polarization); assay type: biochemical
Source text: as §5, §6, §7, §8, §9, §10

[5] = brain, read-out: c(brain)/c(plasma)

PDE 10A, sequence (Q9Y233 whole entry, species assumed): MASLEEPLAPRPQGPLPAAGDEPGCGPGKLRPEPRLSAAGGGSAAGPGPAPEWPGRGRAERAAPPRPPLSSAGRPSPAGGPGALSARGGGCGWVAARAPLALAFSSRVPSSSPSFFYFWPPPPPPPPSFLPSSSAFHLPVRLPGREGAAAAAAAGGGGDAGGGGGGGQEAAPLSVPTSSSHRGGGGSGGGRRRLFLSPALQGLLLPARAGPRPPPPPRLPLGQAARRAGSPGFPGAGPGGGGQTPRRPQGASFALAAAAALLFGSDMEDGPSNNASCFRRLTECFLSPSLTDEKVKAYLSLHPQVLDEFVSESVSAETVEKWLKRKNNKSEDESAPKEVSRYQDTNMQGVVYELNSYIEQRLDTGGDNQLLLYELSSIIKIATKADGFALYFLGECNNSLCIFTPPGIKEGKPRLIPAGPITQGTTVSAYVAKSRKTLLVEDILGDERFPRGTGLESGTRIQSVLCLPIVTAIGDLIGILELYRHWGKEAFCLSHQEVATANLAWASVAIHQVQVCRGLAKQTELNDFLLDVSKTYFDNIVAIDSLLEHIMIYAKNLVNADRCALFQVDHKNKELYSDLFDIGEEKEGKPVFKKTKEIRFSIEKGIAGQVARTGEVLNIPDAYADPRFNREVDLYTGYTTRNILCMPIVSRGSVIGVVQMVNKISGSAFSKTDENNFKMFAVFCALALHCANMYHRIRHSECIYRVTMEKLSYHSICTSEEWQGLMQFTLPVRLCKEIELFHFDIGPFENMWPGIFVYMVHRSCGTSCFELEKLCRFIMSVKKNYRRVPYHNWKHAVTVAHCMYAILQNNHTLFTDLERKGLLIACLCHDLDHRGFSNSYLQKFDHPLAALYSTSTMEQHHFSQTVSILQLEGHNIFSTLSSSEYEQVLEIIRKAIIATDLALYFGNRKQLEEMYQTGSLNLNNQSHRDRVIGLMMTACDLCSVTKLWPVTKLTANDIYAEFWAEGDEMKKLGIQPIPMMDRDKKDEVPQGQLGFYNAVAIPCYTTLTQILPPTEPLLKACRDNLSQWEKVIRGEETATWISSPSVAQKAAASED
PDE10, sequence (Q9Y233 whole entry, species assumed): as above
hERG channel, sequence (Q12809 whole entry): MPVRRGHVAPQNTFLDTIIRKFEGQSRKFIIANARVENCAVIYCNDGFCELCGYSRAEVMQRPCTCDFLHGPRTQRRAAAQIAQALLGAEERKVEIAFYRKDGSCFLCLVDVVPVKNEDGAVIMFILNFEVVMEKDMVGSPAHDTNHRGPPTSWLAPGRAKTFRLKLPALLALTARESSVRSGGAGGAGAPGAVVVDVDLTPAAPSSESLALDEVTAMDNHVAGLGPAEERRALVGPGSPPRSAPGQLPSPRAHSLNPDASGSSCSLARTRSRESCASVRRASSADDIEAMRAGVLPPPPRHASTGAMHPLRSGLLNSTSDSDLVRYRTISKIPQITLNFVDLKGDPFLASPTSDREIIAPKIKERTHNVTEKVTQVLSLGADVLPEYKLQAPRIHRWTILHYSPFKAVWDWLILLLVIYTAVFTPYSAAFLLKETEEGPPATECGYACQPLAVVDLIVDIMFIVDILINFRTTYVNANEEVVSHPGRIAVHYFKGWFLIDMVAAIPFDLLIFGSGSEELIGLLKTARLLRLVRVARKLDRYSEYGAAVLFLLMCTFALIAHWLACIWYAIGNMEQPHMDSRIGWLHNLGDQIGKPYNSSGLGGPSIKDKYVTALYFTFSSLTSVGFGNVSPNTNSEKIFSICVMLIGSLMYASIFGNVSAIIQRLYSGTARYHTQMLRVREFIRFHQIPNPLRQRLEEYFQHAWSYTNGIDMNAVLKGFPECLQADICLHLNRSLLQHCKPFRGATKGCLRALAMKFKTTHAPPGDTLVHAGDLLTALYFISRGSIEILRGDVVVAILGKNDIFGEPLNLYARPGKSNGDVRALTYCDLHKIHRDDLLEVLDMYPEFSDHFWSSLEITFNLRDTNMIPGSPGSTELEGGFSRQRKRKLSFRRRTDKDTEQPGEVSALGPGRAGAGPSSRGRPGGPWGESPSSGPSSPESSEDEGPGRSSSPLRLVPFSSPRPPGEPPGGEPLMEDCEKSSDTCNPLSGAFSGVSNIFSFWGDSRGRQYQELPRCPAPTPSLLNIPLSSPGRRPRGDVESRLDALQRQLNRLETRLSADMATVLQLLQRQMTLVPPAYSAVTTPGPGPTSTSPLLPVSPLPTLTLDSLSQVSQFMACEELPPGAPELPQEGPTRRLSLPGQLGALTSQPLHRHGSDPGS
T1 sequence (O00408 whole entry, species assumed): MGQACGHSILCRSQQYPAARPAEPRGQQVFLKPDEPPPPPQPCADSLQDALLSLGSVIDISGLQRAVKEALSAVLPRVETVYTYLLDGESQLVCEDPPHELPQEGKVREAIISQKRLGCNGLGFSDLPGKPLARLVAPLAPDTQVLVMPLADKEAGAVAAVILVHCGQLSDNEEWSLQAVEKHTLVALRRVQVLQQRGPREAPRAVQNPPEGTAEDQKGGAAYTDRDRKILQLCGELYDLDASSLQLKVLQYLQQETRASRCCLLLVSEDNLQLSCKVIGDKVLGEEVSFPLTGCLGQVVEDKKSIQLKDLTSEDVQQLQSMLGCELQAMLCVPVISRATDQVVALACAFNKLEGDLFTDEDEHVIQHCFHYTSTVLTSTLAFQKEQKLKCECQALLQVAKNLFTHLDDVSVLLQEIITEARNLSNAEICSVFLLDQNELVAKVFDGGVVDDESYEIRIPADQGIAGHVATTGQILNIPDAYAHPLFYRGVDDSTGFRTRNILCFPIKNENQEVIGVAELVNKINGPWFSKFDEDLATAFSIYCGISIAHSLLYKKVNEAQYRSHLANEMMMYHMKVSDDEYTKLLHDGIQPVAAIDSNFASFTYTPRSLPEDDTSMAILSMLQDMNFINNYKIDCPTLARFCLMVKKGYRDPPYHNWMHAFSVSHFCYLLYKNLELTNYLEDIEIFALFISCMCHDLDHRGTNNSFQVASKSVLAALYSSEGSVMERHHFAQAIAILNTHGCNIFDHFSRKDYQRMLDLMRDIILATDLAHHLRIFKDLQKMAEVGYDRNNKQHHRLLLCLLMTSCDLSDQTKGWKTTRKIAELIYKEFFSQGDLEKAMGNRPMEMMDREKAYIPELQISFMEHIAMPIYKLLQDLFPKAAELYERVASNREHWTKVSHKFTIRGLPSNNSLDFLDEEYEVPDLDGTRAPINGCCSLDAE

Row | Compound | IC50 (PDE 10A) | IC50 (PDE2A [1]) | IC50 (PDE2A [2]) | Half-life - t½ [4] | IC50 (PDE10) | also measured
1 | Cc1ccc2nc(C)c3nnc(-c4cccc(O)c4)n3c2n1 [Example 3] | 411 nM | 155 nM |  |  |  | 
2 | Cc1nc2cccnc2n2c(-c3cc(O[C@H]4CCOC4)ccc3Cl)nnc12 [Example 24] |  | 138 nM |  |  |  | 
3 | Cc1nc2cccnc2n2c(-c3cc(OCCCO)ccc3F)nnc12 [Example 26] | 1380 nM | 116 nM |  |  |  | 
4 | Cc1ccc2nc(C)c3nnc(-c4cccc(OCCCO)c4)n3c2n1 [Example 36] | 850 nM | 219 nM |  |  |  | 
5 | Cc1nc2cccnc2n2c(-c3cc(OC4CCOC4)ccc3Cl)nnc12 (stereo not shown) [Example 22] |  | 115 nM | 207 nM |  |  | 
6 | Cc1nc2cccnc2n2c(-c3cc(OC4CCC(O)C4)ccc3Cl)nnc12 (stereo not shown) [Example 40] |  | 80 nM | 77 nM |  |  | 
7 | Cc1ccc2nc(C)c3nnc(-c4cc(OC[C@H](C)O)ccc4Cl)n3c2n1 [Example 34] |  | 9 nM | 17 nM | 2.17 h |  | concentration at 0.5 h ([3]; brain, read-out: conc brain): 146 nM; concentration at 0.5 h ([3]; plasma, read-out: conc plasma): 223 nM; concentration at 0.5 h ([3]; read-out: conc CSF): 19 nM; IC50 (hERG channel): > 10000 nM
8 | Cc1nc2cccnc2n2c(-c3cc(OC4CCC(F)(F)CC4)ccc3Cl)nnc12 [Example 21] | 2820 nM | 70 nM | 22 nM | 2.17 h | 7050 nM | IC50 (hERG channel): > 10000 nM
9 | Cc1ccc2nc(C)c3nnc(-c4cc(O)ccc4Cl)n3c2n1 [Example 2] | 40 nM | 4 nM | 3 nM |  | 33 nM | 
10 | Cc1nc2cccnc2n2c(-c3cc(OCCC(C)O)ccc3Cl)nnc12 (stereo not shown) [Example 19] | 3010 nM | 146 nM |  |  |  | 
11 | Cc1ccc2nc(C)c3nnc(-c4cc(OC5CCC(F)(F)CC5)ccc4Cl)n3c2n1 [Example 30] | 3920 nM | 27 nM | 20 nM | 2.17 h | 2570 nM | 
12 | Cc1nc2cccnc2n2c(-c3cc(O)ccc3F)nnc12 [Example 4] | 441 nM | 138 nM | 120 nM |  | 256 nM | 
13 | Cc1nc2cccnc2n2c(-c3cc(OCC4(O)CCC4)ccc3Cl)nnc12 [Example 49] |  |  | 33 nM | 2.17 h | 3760 nM | concentration at 2 h ([3]; brain, read-out: conc brain): 47 nM; Kp at 2 h [3, 5]: 0.2; concentration at 2 h ([3]; plasma, read-out: conc plasma): 239 nM; concentration at 2 h ([3]; read-out: conc CSF): 13 nM; Kp at 2 h ([3]; read-out: c(CSF)/c(plasma)): 0.06; IC50 (hERG channel): > 10000 nM
14 | Cc1nc2cccnc2n2c(-c3cc(OCCCO)ccc3Cl)nnc12 [Example 13] | 2190 nM | 53 nM | 95 nM | 2.17 h | 6360 nM | IC50 (hERG channel): > 10000 nM
15 | Cc1nc2cccnc2n2c(-c3cc(OC(C)C4CCOCC4)ccc3Cl)nnc12 (stereo not shown) [Example 38] | 1960 nM | 417 nM |  |  |  | 
16 | Cc1nc2cccnc2n2c(-c3cc(OCCO)ccc3Cl)nnc12 [Example 15] |  | 40 nM | 112 nM |  | 1120 nM | 
17 | Cc1nc2cccnc2n2c(-c3cc(O)ccc3Cl)nnc12 [Example 1] | 421 nM |  |  | 2.17 h | 355 nM | 
18 | Cc1ccc2nc(C)c3nnc(-c4cc(OC[C@@H](C)O)ccc4Cl)n3c2n1 [Example 35] |  | 9 nM | 17 nM | 2.17 h |  | 
19 | Cc1nc2cccnc2n2c(-c3cc(OC4CCOCC4)ccc3Cl)nnc12 [Example 20] | 2760 nM |  |  | 2.17 h |  | concentration at 0.5 h ([3]; brain, read-out: conc brain): 272 nM; concentration at 0.5 h ([3]; plasma, read-out: conc plasma): 338 nM; concentration at 0.5 h ([3]; read-out: conc CSF): 37 nM; IC50 (hERG channel): > 10000 nM
20 | Cc1nc2ccc(C3CC3)nc2n2c(-c3cc(C(C)(C)O)ccc3F)nnc12 [Example 76] |  |  | 21 nM | 2.17 h | 1100 nM | concentration at 2 h ([3]; brain, read-out: conc brain): 218 nM; Kp at 2 h [3, 5]: 0.5; concentration at 2 h ([3]; plasma, read-out: conc plasma): 463 nM; concentration at 2 h ([3]; read-out: conc CSF): 18 nM; Kp at 2 h ([3]; read-out: c(CSF)/c(plasma)): 0.04; IC50 (hERG channel): > 10000 nM
21 | Cc1nc2cccnc2n2c(-c3cc(OC4CCC(O)CC4)ccc3Cl)nnc12 (stereo not shown) [Example 39] | 2100 nM | 914 nM |  |  |  | 
22 | Cc1nc2cccnc2n2c(-c3cc(OCC4CCOC4)ccc3Cl)nnc12 (stereo not shown) [Example 25] | 3260 nM | 55 nM | 38 nM |  | 7330 nM | 
23 | Cc1nc2cccnc2n2c(-c3cc(O[C@@H]4CCOC4)ccc3Cl)nnc12 [Example 23] |  | 71 nM | 216 nM |  |  | 
24 | Cc1nc2cccnc2n2c(-c3cc(OCC4(C)COC4)ccc3Cl)nnc12 [Example 37] | 3080 nM | 171 nM |  |  |  | 
25 | Cc1ccc2nc(C)c3nnc(-c4cc(OCCCOC(F)(F)F)ccc4Cl)n3c2n1 [Example 33] |  | 4 nM | 5 nM |  |  | 
26 | COCCOc1ccc(Cl)c(-c2nnc3c(C)nc4ccc(C)nc4n23)c1 [Example 29] | 2380 nM | 17 nM | 37 nM |  | 5100 nM | 
27 | Cc1ccc2nc(C)c3nnc(-c4cc(OCCCO)ccc4Cl)n3c2n1 [Example 27] | 970 nM |  |  |  | 958 nM | IC50 (hERG channel): > 10000 nM
28 | COCCCOc1ccc(Cl)c(-c2nnc3c(C)nc4ccc(C)nc4n23)c1 [Example 31] | 1900 nM | 7 nM | 8 nM |  | 2900 nM | 
